Measured values taken from the kinase profiling compilation of Christmann-Franck et al. (2016).

Tests used:
Test in all cases: KINOMEscan competition binding
Conditions in all cases: compound 1.0 µM
[1] = molecular target: MKNK1 (human) (UniProt Q9BUB5)
[2] = system: FLT3 (human), P36888 [D835Y]
[3] = molecular target: TNNI3K (human) (UniProt Q59H18)
[4] = molecular target: PRKCD (human) (UniProt Q05655)
[5] = molecular target: MAP3K7 (human) (UniProt O43318)
[6] = molecular target: STK38 (human) (UniProt Q15208)
[7] = molecular target: MAP4K2 (human) (UniProt Q12851)
[8] = system: PIK3CA (human), P42336 [E542K]
PIK3CA (human), P42336 [E542K], sequence (P42336 whole entry E542K, looked up): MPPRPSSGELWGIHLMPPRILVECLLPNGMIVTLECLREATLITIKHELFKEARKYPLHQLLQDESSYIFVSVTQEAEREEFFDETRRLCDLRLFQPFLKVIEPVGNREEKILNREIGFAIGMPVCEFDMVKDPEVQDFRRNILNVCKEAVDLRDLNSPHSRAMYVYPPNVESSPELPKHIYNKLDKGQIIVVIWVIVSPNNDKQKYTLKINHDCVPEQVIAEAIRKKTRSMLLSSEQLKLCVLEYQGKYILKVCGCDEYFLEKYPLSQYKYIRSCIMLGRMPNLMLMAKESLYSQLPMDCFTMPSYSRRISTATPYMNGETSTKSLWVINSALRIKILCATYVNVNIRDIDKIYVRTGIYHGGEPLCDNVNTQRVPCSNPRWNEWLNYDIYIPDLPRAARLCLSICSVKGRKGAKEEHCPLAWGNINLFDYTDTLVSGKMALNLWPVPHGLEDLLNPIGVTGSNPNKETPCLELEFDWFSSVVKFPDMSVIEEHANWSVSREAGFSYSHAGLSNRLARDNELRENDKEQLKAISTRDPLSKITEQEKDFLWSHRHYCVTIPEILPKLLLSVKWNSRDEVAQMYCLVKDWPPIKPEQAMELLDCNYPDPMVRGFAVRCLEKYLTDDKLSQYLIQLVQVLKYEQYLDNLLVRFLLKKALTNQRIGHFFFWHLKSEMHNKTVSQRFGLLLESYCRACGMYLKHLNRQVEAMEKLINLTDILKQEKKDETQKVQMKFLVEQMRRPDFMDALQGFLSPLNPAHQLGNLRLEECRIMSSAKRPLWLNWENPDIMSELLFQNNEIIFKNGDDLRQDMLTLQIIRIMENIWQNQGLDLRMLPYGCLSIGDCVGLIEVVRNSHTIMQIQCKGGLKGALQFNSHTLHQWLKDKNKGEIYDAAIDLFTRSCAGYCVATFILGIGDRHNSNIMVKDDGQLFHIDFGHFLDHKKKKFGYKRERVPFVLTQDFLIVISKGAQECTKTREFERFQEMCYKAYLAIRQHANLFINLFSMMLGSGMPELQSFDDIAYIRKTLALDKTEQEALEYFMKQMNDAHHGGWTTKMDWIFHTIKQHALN

[9] = molecular target: TNIK (human) (UniProt Q9UKE5)
TNIK (human), sequence (Q9UKE5 whole entry, looked up): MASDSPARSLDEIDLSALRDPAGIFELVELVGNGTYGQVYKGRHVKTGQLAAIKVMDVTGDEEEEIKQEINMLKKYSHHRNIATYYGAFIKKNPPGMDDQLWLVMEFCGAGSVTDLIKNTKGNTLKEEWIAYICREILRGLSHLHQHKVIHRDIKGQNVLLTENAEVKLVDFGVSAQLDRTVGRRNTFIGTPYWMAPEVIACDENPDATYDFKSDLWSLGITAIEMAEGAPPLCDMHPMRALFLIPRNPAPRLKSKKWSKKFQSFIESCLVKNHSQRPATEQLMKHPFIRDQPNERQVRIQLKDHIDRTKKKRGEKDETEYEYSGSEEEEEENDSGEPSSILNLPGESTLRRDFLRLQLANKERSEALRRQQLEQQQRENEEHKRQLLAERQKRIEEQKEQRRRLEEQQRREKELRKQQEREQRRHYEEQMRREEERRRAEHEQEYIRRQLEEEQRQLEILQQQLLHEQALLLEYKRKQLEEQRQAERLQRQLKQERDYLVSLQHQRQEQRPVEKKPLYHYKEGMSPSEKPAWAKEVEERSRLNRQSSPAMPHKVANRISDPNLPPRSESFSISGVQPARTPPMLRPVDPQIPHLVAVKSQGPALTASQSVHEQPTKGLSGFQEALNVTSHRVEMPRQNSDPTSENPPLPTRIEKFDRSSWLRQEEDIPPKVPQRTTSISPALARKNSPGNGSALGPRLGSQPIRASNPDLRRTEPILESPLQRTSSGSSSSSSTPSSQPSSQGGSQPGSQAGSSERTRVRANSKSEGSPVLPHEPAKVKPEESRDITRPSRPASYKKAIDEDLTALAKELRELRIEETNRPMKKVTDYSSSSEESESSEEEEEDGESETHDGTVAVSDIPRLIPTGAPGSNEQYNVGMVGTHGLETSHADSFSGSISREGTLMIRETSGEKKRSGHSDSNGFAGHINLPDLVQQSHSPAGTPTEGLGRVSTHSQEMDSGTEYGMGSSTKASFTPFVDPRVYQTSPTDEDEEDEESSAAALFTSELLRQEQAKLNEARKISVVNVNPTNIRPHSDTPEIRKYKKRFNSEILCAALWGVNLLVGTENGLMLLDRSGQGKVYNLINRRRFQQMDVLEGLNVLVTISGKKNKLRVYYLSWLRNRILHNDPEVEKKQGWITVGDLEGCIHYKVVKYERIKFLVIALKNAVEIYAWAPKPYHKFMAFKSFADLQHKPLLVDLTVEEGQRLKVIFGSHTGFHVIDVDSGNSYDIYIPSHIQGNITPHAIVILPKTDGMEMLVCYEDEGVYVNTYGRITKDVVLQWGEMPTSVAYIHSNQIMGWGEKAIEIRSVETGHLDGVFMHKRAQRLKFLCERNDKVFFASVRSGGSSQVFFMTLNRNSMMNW

[10] = molecular target: PRKG2 (human) (UniProt Q13237)
[11] = molecular target: CaMK1 (human) (UniProt Q14012)
CaMK1 (human), sequence (Q14012 whole entry, looked up): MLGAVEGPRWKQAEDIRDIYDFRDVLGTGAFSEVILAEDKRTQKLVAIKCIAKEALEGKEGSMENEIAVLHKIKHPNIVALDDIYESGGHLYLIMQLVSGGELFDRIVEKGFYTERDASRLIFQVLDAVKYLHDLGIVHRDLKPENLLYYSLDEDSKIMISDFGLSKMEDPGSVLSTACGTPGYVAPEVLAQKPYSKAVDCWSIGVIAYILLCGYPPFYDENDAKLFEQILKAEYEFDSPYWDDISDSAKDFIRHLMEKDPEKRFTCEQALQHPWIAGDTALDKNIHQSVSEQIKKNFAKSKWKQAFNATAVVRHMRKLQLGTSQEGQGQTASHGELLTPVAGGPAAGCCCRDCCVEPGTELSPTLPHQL

[12] = molecular target: RPS6KA2 KD2 (human) (UniProt Q15349)
[13] = molecular target: NLK (human) (UniProt Q9UBE8)
[14] = molecular target: PAK1 (human) (UniProt Q13153)
[15] = molecular target: ULK1 (human) (UniProt O75385)
[16] = molecular target: LCK (human) (UniProt P06239)
[17] = molecular target: GRK4 (human) (UniProt P32298)
[18] = system: MET (human), P08581 [Y1235D]
[19] = molecular target: ANKK1 (human) (UniProt Q8NFD2)
ANKK1 (human), sequence (Q8NFD2 whole entry, looked up): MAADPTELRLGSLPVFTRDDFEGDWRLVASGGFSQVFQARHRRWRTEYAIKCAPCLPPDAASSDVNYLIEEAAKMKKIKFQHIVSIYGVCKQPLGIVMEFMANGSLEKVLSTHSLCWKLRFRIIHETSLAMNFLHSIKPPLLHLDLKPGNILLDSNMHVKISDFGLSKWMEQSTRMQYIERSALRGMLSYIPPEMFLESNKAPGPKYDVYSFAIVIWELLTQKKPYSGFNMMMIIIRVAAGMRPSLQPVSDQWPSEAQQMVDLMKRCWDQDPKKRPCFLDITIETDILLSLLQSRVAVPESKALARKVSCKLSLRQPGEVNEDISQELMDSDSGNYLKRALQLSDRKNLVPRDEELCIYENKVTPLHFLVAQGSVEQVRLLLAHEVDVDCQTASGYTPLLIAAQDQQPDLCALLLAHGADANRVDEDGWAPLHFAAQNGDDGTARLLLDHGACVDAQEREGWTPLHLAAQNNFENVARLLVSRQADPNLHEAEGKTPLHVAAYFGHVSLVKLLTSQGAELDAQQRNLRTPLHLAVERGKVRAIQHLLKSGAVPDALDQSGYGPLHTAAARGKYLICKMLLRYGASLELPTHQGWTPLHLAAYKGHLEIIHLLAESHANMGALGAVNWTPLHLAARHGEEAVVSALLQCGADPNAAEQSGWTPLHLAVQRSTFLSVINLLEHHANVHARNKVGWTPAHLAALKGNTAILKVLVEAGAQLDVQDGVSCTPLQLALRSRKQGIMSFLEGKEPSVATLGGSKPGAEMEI

[20] = molecular target: MYLK4 (human) (UniProt Q86YV6)
[21] = molecular target: PKN3 (M.tuberculosis) (UniProt Q6P5Z2)
[22] = molecular target: PIK3CB (human) (UniProt P42338)
[23] = molecular target: MAP2K3 (human) (UniProt P46734)
[24] = molecular target: CAMK4 (human) (UniProt Q16566)
[25] = system: PIK3CA (human), P42336 [H1047Y]
PIK3CA (human), P42336 [H1047Y], sequence (P42336 whole entry H1047Y, looked up): as the sequence (P42336 whole entry E542K, looked up) above, with K542E, H1047Y counted along it

[26] = molecular target: EPHA2 (human) (UniProt P29317)
[27] = molecular target: MAPK10 (human) (UniProt P53779)
MAPK10 (human), sequence (P53779 whole entry, looked up): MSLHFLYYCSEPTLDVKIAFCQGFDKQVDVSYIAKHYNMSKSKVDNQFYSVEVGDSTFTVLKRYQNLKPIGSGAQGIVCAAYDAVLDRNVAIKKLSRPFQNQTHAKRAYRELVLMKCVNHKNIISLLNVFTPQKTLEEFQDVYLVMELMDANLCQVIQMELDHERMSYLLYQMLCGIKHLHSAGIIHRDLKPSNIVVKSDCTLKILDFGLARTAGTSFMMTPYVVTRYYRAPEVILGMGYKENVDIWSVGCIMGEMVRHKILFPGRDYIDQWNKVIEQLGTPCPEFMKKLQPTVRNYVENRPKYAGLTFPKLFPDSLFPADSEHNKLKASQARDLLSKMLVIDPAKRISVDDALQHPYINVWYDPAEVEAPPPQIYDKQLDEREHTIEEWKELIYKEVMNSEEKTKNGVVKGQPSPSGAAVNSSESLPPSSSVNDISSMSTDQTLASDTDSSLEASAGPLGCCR

[28] = system: PIK3CA (human), P42336 [E545K]
PIK3CA (human), P42336 [E545K], sequence (P42336 whole entry E545K, looked up): as the sequence (P42336 whole entry E542K, looked up) above, with K542E, E545K counted along it

[29] = molecular target: LIMK1 (human) (UniProt P53667)
[30] = molecular target: MST4 (human) (UniProt Q9P289)
[31] = molecular target: EPHB4 (human) (UniProt P54760)
[32] = molecular target: IRAK1 (human) (UniProt P51617)
IRAK1 (human), sequence (P51617 whole entry, looked up): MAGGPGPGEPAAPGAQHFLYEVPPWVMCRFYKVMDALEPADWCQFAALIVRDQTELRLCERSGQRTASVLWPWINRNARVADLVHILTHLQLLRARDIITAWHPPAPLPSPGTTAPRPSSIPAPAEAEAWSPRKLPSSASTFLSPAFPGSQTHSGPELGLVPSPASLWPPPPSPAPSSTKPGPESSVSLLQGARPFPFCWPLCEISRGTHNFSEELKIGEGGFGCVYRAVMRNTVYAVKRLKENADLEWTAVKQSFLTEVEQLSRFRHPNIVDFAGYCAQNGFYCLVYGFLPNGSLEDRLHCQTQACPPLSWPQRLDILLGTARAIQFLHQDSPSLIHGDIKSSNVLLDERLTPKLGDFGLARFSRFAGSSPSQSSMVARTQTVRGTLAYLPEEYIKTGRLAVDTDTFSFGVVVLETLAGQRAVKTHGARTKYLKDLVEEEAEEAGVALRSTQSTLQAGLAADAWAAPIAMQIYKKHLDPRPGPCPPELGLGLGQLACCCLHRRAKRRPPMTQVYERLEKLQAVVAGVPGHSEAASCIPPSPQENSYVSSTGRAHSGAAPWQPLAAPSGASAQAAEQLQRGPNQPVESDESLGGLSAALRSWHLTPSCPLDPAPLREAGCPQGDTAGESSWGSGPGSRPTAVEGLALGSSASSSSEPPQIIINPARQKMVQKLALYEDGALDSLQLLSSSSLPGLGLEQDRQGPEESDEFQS

[33] = molecular target: PTK2 (human) (UniProt Q05397)
[34] = molecular target: NTRK3 (human) (UniProt Q16288)
[35] = molecular target: BMPR2 (human) (UniProt Q13873)
[36] = system: EGFR (human), P00533 [P753S; 747-752 del]
[37] = molecular target: FGR (human) (UniProt P09769)
[38] = molecular target: PDGFRB (human) (UniProt P09619)
[39] = molecular target: PAK6 (human) (UniProt Q9NQU5)

Which results are given for CNc1nc(Nc2ccc(C(=O)N3CCOCC3)cc2OC)ncc1Cl?
kinase still bound, per cent of control [1]: 88%; kinase still bound, per cent of control [2]: 72%; kinase still bound, per cent of control [3]: 54%; kinase still bound, per cent of control [4]: 49%; kinase still bound, per cent of control [5]: 79%; kinase still bound, per cent of control [6]: 100%; kinase still bound, per cent of control [7]: 100%; kinase still bound, per cent of control [8]: 100%; kinase still bound, per cent of control [9]: 100%; kinase still bound, per cent of control [10]: 94%; kinase still bound, per cent of control [11]: 96%; kinase still bound, per cent of control [12]: 92%; kinase still bound, per cent of control [13]: 100%; kinase still bound, per cent of control [14]: 100%; kinase still bound, per cent of control [15]: 100%; kinase still bound, per cent of control [16]: 100%; kinase still bound, per cent of control [17]: 75%; kinase still bound, per cent of control [18]: 100%; kinase still bound, per cent of control [19]: 100%; kinase still bound, per cent of control [20]: 100%; kinase still bound, per cent of control [21]: 85%; kinase still bound, per cent of control [22]: 100%; kinase still bound, per cent of control [23]: 93%; kinase still bound, per cent of control [24]: 100%; kinase still bound, per cent of control [25]: 85%; kinase still bound, per cent of control [26]: 100%; kinase still bound, per cent of control [27]: 42%; kinase still bound, per cent of control [28]: 100%; kinase still bound, per cent of control [29]: 91%; kinase still bound, per cent of control [30]: 100%; kinase still bound, per cent of control [31]: 100%; kinase still bound, per cent of control [32]: 100%; kinase still bound, per cent of control [33]: 88%; kinase still bound, per cent of control [34]: 100%; kinase still bound, per cent of control [35]: 85%; kinase still bound, per cent of control [36]: 89%; kinase still bound, per cent of control [37]: 100%; kinase still bound, per cent of control [38]: 76%; kinase still bound, per cent of control [39]: 100%
